Measurements: patent US8410104B2, “Pyridazines” (Hoffmann-La Roche Inc., priority 2009, dated 2013)

target: T1, human GABA A α5 receptor (α5β3γ2) (Homo sapiens, UniProt P18507+P31644); assay: [3H]flumazenil competition binding assay, human GABA A α5β3γ2 receptors in HEK293 cells; details: human receptors transiently transfected in HEK293; 0.5 nM [3H]flumazenil; means of two determinations; read-out: hKi GABA A α5
T1 construct: expressed in transfected cells; host or cells: HEK293 cells, transiently transfected; membranes prepared from cell pellets
Experimental: Membrane Preparation and Binding Assay
The affinity of compounds at GABA A receptor subtypes was measured by competition for [^3H]flumazenil (85 Ci/mmol; Roche) binding to HEK293 cells expressing rat (stably transfected) or human (transiently transfected) receptors of composition α1β3γ2, α2β3γ2, α3β3γ2 and α5β3γ2.
Cell pellets were suspended in Krebs-tris buffer (4.8 mM KCl, 1.2 mM CaCl2, 1.2 mM MgCl2, 120 mM NaCl, 15 mM Tris; pH 7.5; binding assay buffer), homogenized by polytron for ca. 20 sec on ice and centrifuged for 60 min at 4° C. (50000 g; Sorvall, rotor: SM24=20000 rpm). The cell pellets were re-suspended in Krebs-tris buffer and homogenized by polytron for ca. 15 sec on ice. Protein was measured (Bradford method, Bio-Rad) and aliquots of 1 mL were prepared and stored at −80° C.
Radioligand binding assays were carried out in a volume of […] (96-well plates) which contained […] of cell membranes, [^3H]flumazenil at a concentration of 1 nM for α1, α2 and α3 subunits and 0.5 nM for α5 subunits and the test compound in the range of […]. Nonspecific binding was defined by 10^−5 M diazepam and typically represented less than 5% of the total binding. Assays were incubated to equilibrium for 1 hour at 4° C. and harvested onto GF/C uni-filters (Packard) by filtration using a Packard harvester and washing with ice-cold wash buffer (50 mM Tris; pH 7.5). After drying, filter-retained radioactivity was detected by liquid scintillation counting. Ki values were calculated using Excel-Fit (Microsoft) and are the means of two determinations.

Ki [nM] | Compound
6.9 | CCCCc1noc(C)c1COc1ccc(C(=O)NC2CCOC2)nn1 (racemic) [Example 8, Rac-6-(3-Butyl-5-methyl-isoxazol-4-ylmethoxy)-pyridazine-3-carboxylic acid (tetrahydro-furan-3-yl)-amide]
17.3 | CCCCc1noc(C)c1COc1ccc(C(=O)N[C@@H](C)CO)nn1 [Example 5, 6-(3-Butyl-5-methyl-isoxazol-4-ylmethoxy)-pyridazine-3-carboxylic acid ((S)-2-hydroxy-1-methyl-ethyl)-amide]
8.6 | CCCCc1noc(C)c1COc1ccc(C(=O)N[C@H]2CCOC2)nn1 [Example 6, (S)-6-(3-Butyl-5-methyl-isoxazol-4-ylmethoxy)-pyridazine-3-carboxylic acid (tetrahydro-furan-3-yl)-amide]
10.4 | CCCCc1noc(C)c1COc1ccc(C(=O)NC(C)CO)nn1 (stereo not drawn) [Example 7, 6-(3-Butyl-5-methyl-isoxazol-4-ylmethoxy)-pyridazine-3-carboxylic acid (2-hydroxy-1-methyl-ethyl)-amide]
7.3 | CCCCc1noc(C)c1COc1ccc(C(N)=O)nn1 [Example 9, 6-(3-Butyl-5-methyl-isoxazol-4-ylmethoxy)-pyridazine-3-carboxylic acid amide]

The remaining lines, values behind:

Compound | Ki [nM]
CCCCc1noc(C)c1COc1ccc(C(=O)NC(C)C)nn1 [Example 1, 6-(3-Butyl-5-methyl-isoxazol-4-ylmethoxy)-pyridazine-3-carboxylic acid isopropylamide] | 12.8
CCCCc1noc(C)c1COc1ccc(C(=O)NC2CCOCC2)nn1 [Example 2, 6-(3-Butyl-5-methyl-isoxazol-4-ylmethoxy)-pyridazine-3-carboxylic acid (tetrahydro-pyran-4-yl)-amide] | 16.6
CCCCc1noc(C)c1COc1ccc(C(=O)N[C@H](C)CO)nn1 [Example 3, 6-(3-Butyl-5-methyl-isoxazol-4-ylmethoxy)-pyridazine-3-carboxylic acid ((R)-2-hydroxy-1-methyl-ethyl)-amide] | 7
CCCCc1noc(C)c1COc1ccc(C(=O)NCC(C)(C)O)nn1 [Example 4, 6-(3-Butyl-5-methyl-isoxazol-4-ylmethoxy)-pyridazine-3-carboxylic acid (2-hydroxy-2-methyl-propyl)-amide] | 17.3
